Results on two molecules are retold here after US11730714B2, “Compounds for the treatment of neuromuscular disorders” (NMD PHARMA A/S, priority 2017, dated 2023).

The target of test [1] is T1, human CIC-1 channels (Homo sapiens, UniProt P35523).
T1 construct: host or cells: CHO (Chinese hamster ovary) cells, cryopreserved, used directly after thawing
Nature of the test: Automated patch-clamp on human CIC-1 expressed in CHO cells (shift in half activation voltage V1/2). In kind it is cell-based. Particulars: compound in intracellular solution vs vehicle control patches; CHO cells expressing human ClC-1. Here is the method:
FIG. 13A-13B: FIG. 13A illustrates the voltage protocol used to evoke currents in whole cell patches of CHO cells expressing human CIC-1 channels.
The investigatory goal of these experiments was to evaluate how compounds affect the open probability and current amplitude of human CIC-1 channels expressed in CHO cells. Experiments were performed using an automated patch clamp system that allowed high throughput testing of whole cell patches together with both intracellular and extracellular addition of compound.
Automated whole cell patch clamp experiments were performed with the Qpatch 16 system (Sophion Bioscience, Ballerup, Denmark) at room temperature. Data acquisition and analysis were performed in the Qassay software (ver. 5.6, Odense).
To obtain tail currents, the membrane potential was stepped to −100 mV after each test voltage for 300 ms and then relaxed to −30 mV for 2 sec between sweeps (FIG. 3). I/V relationships for whole cell instant and steady state current amplitudes were obtained by plotting average current densities at the beginning and at the end of the 300 ms step against the membrane potential (FIG. 4).
In order to determine the relative overall open probability (Po), the instantaneous tail currents were normalized to the maximal tail current obtained following the most positive voltage step and plotted against the test voltage. Plots of normalized tail currents from each whole cell patch were then fitted to a Boltzmann function allowing determination of half activation voltages (V1/2, FIG. 5).
Osmolality adjusted to […] using sucrose.
Intracellular solutions contained: 80 mM […], 60 mM CsCl, 5/1 mM KOH/EGTA, 10 mM HEPES, 10 mM NaCl, pH adjusted to 7.2 with NaOH (2 M). Osmolality adjusted to ˜320 mOsm using sucrose.
Cells used in patch clamp experiments were Chinese hamster ovary cells (CHO) constitutively expressing human CIC-1 channels. The amino acid sequence encoded by the cDNA used to create this cell line was identical to the translated sequence for GenBank accession number NM_000083.2. Cells were produced by Charles River (Catalogue CT6175, Cleveland Ohio, USA) in a cryopreserved format. Experiments were performed on the cells directly after thawing (3×10^6 cells used in each experiment).
To evaluate the compound effect on CIC-1, when applied directly to the intracellular side of the cell membrane, the half activation voltage, V1/2, was determined from whole cell patches with compound added to the intracellular solution and then compared to V1/2 determined from control cell patches with only vehicle added to the intracellular solution. Additionally, the effect of extracellular added compound was evaluated by determine V1/2 and steady state current amplitudes before and after exchanging the extracellular solution to contain compound.
The difference in half activation voltage of CIC-1 channels, […]V1/2, was determined as the difference between the cell patches treated intracellularly with compound and control cells patches and is reported in Table 4 below. A positive shift in […]V1/2 is reflecting CIC-1 channel inhibition by the tested compound. P-values of <0.05 is considered significant.
Background: The patch-clamp technique gives a direct electrical read-out from membranes.

The subject of test [2] is rats injected with MAB35. Nature of the test: Rotarod running performance in passive myasthenia gravis induced in rats with MAB35 antibody. The format is in vivo, rat. The note with it: after stable reduction in performance by MAB35, vs sham. The protocol: FIG. 10. […] Prior to I.P. injection of MAB35 the animals had been familiarized to the rotarod over three training sessions distributed over two days. […] After this treatment performance was monitored every second hour. *Indicates significant different as evaluated using student t-test.
In both series of experiments, running performance was tested on a rotarod using a protocol where the rod was accelerated gradually over a 5 min period, and the running time and covered distance before falling off the rod were measured. […] Experiments with tubocurarine were carried out over two days, and on each day the effect of tubocurarine on running performance was tested. On the first day only tubocurarine was injected. […] On the second day, the animals were first allowed to run on the rotarod, and all animals performed normally. […] The allocation of the animals into the two groups (C8 or sham) was random and unknown to the experimenter (blinded experimental design).
In experiments with MAB35, animals were first familiarized with the rotarod over two consecutive days and then injected I.P. with MAB35. After injection, rotarod performance was then again monitored regularly over the consecutive two days. […] A considerable number of animals, however, became moribund failing to walk and they had altered ventilation (rapid) and pronounced ptosis. These animals were not included in experiments. […]
A general note: In the rotarod test animals must keep their balance on a rotating rod.

Test [3] relates to rat soleus muscles. The format is cell-based. Particulars: 10 and 25 μM C8; 1 μM μ-conotoxin GiiiB; vs control conditions.

T1 sequence (P35523 whole entry): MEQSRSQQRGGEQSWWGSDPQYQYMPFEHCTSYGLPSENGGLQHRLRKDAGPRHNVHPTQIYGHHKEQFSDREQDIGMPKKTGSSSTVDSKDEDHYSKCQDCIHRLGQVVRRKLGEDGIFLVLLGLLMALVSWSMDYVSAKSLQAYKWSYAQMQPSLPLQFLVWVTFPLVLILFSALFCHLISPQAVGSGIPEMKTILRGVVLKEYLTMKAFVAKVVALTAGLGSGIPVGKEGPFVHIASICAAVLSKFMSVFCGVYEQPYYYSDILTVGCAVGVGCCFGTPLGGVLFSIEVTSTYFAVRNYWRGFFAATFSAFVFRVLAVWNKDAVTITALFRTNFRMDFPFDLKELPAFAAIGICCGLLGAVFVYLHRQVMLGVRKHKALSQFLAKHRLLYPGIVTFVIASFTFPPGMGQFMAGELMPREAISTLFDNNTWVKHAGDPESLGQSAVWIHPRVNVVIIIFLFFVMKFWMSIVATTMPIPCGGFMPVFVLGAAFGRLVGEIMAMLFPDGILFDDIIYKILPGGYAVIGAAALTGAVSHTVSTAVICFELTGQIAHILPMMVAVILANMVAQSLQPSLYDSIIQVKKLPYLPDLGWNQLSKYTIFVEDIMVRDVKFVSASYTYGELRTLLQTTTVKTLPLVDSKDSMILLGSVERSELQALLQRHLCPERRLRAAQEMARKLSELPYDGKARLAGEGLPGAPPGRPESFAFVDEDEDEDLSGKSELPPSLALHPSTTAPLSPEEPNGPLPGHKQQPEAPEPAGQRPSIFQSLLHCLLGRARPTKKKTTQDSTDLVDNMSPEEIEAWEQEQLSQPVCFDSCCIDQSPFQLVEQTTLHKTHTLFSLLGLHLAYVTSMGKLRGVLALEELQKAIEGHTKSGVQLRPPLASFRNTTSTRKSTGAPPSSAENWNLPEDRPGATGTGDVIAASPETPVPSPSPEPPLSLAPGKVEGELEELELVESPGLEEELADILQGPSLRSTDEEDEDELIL

“(2S)-2-(4-bromophenoxy)(2-^2H)butanoic acid [Compound A-60]”: the “ΔV½ (difference in half activation voltage of ClC-1)” value in test [1] is 20.0 mV.

Regarding `C[C@H](Oc1ccc(Br)cc1)C(=O)O` [Compound C8, (2S)-2-(4-bromophenoxy)propanoic acid], the results for the “rotarod performance after injection” value in test [2] (C8 20 mg/kg) and in test [2] (C8 30 mg/kg) were “decline was reduced” and “clear recovery of performance”, respectively. In addition, the EPP amplitude result in test [3] is on record as “significantly larger EPPs”.
